Columns and labels:
[1] = test system: Influenza A virus; assay: Antiviral activity against Influenza A virus A/PR/8/34 strain incubated with MDCK cells assessed as cell protection after 72 hrs by phenotypic cell protection assay; assay type: functional, organism-based; details: A/Puerto Rico/8/1934(H1N1)
[2] = test system: Influenza A virus; assay: Antiviral activity against influenza A virus A/PR/8/34 strain incubated with MDCK cells assessed as reduction of viral RNA level equal to 1% of control level after 72 hrs by branched DNA assay; assay type: functional, organism-based; details: A/Puerto Rico/8/1934(H1N1)
[3] = target: Tyrosine-protein kinase JAK2 (Homo sapiens, UniProt O60674); assay: Inhibition of JAK2 (unknown origin)
[4] = target: Glycogen synthase kinase-3 (Homo sapiens, UniProt P49840+P49841); assay: Inhibition of GSK3 (unknown origin); assay type: protein assay
[5] = target: T1, Receptor-type tyrosine-protein kinase FLT3 (Homo sapiens, UniProt P36888); assay: Inhibition of FLT3 (unknown origin)
T1 sequence (P36888 whole entry): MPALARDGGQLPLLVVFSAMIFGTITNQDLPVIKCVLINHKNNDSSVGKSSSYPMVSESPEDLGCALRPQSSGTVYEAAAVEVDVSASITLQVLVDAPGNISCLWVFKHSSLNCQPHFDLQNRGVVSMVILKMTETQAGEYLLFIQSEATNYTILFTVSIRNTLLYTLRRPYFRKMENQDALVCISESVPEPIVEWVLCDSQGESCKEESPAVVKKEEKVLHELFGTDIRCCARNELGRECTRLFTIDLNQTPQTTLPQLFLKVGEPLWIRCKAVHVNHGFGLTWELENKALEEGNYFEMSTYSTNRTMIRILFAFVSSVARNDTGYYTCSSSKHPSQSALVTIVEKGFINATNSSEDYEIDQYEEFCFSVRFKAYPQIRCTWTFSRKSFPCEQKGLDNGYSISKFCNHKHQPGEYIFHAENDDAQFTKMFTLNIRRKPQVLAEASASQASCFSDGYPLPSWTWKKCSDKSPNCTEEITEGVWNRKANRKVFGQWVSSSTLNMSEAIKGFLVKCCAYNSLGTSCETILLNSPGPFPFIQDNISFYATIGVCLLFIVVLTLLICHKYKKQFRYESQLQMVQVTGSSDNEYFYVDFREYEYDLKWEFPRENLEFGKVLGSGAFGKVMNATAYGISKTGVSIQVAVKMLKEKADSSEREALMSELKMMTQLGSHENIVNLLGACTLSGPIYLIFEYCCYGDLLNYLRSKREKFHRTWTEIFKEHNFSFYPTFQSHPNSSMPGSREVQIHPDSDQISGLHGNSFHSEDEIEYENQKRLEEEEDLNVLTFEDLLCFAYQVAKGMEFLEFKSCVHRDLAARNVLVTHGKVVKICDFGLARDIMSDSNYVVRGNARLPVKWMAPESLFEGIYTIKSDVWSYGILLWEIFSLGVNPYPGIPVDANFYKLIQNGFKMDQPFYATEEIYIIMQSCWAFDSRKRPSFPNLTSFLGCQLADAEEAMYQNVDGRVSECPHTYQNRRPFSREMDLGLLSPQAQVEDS

[6] = target: Mitogen-activated protein kinase 10 (Homo sapiens, UniProt P53779); assay: Inhibition of JNK3 (unknown origin)
[7] = target: Rho-associated protein kinase (Homo sapiens, UniProt O75116+Q13464); assay: Inhibition of ROCK (unknown origin); assay type: protein-complex assay
[8] = target: Vascular endothelial growth factor receptor 2 (Homo sapiens, UniProt P35968); assay: Inhibition of KDR (unknown origin)
[9] = target: Proto-oncogene tyrosine-protein kinase Src (Homo sapiens, UniProt P12931); assay: Inhibition of SRC (unknown origin)
[10] = target: cAMP-dependent protein kinase catalytic subunit alpha (Homo sapiens, UniProt P17612); assay: Inhibition of PKAa (unknown origin)
[11] = target: T2, Interleukin-1 receptor-associated kinase 4 (Homo sapiens, UniProt Q9NWZ3); assay: Inhibition of IRAK4 (unknown origin)
T2 sequence (Q9NWZ3 whole entry): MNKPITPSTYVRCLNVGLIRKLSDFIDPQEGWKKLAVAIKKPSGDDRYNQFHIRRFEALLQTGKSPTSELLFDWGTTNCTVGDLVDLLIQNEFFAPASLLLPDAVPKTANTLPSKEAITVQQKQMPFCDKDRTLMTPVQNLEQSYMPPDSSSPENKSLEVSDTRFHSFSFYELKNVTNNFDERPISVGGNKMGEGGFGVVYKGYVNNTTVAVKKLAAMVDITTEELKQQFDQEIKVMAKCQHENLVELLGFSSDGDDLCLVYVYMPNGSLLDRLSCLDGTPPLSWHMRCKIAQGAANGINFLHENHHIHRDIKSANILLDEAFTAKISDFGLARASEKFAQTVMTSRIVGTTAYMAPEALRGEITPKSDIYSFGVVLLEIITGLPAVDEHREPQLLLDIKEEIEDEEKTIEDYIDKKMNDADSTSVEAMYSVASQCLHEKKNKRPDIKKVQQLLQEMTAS

[12] = target: Tyrosine-protein kinase SYK (Homo sapiens, UniProt P43405); assay: Inhibition of SYK (unknown origin)
[13] = target: Cyclin-dependent kinase 2 (Homo sapiens, UniProt P24941); assay: Inhibition of CDK2 (unknown origin)
[14] = target: Serine/threonine-protein kinase PLK1 (Homo sapiens, UniProt P53350); assay: Inhibition of PLK (unknown origin)
[15] = target: Hepatocyte growth factor receptor (Homo sapiens, UniProt P08581); assay: Inhibition of MET (unknown origin)
[16] = target: Phosphatidylinositol 4,5-bisphosphate 3-kinase catalytic subunit alpha isoform (Homo sapiens, UniProt P42336); assay: Inhibition of PI3Kalpha (unknown origin)
[17] = target: T3, Phosphatidylinositol 4,5-bisphosphate 3-kinase catalytic subunit delta isoform (Homo sapiens, UniProt O00329); assay: Inhibition of PI3Kdelta (unknown origin)
T3 sequence (O00329 whole entry): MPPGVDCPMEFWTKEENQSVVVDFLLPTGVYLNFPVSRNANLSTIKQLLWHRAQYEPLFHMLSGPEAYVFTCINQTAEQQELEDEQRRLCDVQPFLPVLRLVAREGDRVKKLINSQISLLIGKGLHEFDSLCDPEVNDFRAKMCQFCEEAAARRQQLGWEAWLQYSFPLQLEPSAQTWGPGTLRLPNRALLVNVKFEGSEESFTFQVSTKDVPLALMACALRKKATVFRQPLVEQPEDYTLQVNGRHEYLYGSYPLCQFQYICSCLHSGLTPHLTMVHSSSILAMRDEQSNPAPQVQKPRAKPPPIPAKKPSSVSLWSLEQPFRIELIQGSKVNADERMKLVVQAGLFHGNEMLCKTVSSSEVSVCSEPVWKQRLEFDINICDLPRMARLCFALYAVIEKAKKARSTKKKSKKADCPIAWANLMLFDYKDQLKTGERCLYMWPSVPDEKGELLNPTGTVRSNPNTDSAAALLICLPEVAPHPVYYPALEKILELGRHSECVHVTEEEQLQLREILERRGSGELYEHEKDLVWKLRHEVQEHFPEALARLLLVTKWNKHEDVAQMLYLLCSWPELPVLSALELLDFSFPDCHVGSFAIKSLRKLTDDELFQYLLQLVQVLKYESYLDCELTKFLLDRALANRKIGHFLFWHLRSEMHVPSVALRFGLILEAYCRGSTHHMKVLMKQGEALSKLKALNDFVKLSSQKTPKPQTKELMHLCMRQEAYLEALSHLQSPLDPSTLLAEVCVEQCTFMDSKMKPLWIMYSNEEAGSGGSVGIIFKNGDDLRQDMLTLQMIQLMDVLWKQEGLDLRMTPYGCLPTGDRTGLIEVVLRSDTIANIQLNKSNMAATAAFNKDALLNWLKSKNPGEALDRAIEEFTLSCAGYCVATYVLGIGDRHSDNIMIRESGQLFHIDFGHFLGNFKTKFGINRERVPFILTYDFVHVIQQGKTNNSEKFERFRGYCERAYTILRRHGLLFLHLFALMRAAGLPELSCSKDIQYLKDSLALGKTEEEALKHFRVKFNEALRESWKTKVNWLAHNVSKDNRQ

[18] = target: Phosphatidylinositol 4,5-bisphosphate 3-kinase catalytic subunit gamma isoform (Homo sapiens, UniProt P48736); assay: Inhibition of PI3Kgamma (unknown origin)
[19] = target: Phosphatidylinositol 4,5-bisphosphate 3-kinase catalytic subunit beta isoform (Homo sapiens, UniProt P42338); assay: Inhibition of PI3Kbeta (unknown origin)

Tyrosine-protein kinase JAK2, sequence (O60674 whole entry): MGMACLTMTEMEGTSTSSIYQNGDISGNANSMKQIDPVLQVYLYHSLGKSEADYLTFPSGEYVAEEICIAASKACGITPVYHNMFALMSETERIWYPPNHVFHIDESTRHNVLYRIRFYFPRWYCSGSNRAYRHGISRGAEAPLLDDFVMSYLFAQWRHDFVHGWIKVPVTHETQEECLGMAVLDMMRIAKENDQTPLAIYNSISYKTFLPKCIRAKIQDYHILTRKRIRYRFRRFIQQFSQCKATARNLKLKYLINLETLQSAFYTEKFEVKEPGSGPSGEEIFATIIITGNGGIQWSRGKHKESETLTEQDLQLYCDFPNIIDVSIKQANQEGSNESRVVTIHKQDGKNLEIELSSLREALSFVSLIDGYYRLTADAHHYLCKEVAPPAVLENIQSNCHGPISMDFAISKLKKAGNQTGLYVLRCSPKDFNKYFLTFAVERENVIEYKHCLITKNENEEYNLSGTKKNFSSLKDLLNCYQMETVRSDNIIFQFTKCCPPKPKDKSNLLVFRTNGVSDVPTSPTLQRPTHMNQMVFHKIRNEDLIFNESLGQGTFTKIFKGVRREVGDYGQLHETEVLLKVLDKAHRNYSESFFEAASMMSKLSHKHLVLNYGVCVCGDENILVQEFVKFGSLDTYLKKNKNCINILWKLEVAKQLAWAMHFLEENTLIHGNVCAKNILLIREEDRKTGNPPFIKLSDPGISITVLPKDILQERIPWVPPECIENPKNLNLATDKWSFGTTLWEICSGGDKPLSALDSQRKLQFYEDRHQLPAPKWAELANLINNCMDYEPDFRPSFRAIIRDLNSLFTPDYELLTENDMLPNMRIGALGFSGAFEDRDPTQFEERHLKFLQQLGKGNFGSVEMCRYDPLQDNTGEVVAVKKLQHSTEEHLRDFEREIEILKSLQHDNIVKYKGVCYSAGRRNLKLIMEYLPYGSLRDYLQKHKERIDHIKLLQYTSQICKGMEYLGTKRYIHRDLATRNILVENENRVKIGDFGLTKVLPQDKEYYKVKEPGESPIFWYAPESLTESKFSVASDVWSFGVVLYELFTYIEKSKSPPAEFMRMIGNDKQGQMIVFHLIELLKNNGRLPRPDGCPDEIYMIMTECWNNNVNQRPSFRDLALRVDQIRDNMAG
Phosphatidylinositol 4,5-bisphosphate 3-kinase catalytic subunit gamma isoform, sequence (P48736 whole entry, canonical isoform): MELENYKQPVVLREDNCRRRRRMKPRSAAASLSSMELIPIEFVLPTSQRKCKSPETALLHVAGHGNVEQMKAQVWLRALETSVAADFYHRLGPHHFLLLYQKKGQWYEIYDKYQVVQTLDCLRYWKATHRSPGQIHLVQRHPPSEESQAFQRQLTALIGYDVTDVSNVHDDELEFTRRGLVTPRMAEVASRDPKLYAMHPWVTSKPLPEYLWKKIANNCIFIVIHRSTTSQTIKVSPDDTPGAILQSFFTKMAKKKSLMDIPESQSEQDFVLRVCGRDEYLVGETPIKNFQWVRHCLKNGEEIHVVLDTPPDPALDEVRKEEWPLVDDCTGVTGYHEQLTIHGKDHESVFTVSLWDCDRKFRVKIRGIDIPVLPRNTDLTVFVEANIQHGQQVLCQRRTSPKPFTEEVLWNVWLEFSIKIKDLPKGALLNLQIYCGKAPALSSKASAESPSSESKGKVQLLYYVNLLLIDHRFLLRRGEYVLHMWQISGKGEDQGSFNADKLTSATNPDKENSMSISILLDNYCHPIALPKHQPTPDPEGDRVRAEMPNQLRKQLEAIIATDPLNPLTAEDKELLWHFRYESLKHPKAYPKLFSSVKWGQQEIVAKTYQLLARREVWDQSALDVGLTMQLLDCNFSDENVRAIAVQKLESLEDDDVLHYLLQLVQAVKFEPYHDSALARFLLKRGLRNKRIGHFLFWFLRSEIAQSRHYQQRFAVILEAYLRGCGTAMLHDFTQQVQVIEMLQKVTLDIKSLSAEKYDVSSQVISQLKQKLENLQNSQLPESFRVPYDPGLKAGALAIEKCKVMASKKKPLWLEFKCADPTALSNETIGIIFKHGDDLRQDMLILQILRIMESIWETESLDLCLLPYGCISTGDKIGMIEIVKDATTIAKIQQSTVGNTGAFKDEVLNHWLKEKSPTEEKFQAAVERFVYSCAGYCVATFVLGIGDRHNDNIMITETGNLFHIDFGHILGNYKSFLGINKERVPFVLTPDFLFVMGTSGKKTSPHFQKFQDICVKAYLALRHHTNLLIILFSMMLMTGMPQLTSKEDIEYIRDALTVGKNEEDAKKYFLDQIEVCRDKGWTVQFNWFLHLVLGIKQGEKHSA
Hepatocyte growth factor receptor, sequence (P08581 whole entry, canonical isoform): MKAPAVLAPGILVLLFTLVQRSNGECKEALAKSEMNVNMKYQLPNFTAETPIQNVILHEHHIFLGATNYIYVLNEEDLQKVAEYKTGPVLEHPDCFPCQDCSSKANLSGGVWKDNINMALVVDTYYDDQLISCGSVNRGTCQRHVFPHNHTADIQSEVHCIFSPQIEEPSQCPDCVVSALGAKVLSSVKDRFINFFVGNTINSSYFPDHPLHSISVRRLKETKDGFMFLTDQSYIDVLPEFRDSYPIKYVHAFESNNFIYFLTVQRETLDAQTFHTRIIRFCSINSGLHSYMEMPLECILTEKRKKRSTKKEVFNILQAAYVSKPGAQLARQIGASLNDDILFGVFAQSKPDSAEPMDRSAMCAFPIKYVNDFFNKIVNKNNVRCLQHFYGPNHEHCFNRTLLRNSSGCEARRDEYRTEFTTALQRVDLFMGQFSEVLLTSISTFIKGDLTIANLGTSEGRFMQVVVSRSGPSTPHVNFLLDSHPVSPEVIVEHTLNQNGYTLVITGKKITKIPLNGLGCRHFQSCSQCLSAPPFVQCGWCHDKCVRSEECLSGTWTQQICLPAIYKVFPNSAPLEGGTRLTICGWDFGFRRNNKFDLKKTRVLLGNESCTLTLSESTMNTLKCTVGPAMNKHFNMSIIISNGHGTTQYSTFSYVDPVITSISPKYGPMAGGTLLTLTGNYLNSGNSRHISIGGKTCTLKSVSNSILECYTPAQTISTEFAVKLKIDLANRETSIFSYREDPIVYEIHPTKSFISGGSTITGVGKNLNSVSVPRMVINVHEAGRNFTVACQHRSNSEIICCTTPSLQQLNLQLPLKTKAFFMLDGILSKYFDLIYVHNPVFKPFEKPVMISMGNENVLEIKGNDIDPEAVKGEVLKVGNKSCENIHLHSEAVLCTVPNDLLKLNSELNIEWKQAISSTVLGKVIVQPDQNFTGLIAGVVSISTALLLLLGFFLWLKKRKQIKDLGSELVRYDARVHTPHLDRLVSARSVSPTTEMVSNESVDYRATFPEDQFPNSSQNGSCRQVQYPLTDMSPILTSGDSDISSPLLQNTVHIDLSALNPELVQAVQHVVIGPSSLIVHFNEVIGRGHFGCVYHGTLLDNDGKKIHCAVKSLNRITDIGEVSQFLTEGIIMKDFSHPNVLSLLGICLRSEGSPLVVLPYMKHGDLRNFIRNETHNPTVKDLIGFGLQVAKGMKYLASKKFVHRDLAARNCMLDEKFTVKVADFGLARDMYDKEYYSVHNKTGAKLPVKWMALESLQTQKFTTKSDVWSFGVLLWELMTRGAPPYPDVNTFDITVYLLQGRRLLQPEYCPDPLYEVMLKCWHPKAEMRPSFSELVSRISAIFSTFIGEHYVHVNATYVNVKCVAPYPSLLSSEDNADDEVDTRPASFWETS
Mitogen-activated protein kinase 10, sequence (P53779 whole entry): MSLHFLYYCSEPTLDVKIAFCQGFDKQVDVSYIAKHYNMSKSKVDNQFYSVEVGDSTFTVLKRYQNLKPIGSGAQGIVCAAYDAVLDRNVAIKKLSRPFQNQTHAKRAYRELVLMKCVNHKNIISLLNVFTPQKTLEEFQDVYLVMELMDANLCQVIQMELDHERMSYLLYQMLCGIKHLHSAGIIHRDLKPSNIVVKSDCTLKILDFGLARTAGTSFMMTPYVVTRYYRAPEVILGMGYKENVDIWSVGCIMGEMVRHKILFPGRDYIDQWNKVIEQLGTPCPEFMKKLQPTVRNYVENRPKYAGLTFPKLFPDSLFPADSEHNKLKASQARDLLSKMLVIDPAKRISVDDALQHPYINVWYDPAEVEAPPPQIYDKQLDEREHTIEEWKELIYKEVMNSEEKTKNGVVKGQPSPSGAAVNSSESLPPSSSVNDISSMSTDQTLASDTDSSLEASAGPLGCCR
Proto-oncogene tyrosine-protein kinase Src, sequence (P12931 2-536 limits assumed): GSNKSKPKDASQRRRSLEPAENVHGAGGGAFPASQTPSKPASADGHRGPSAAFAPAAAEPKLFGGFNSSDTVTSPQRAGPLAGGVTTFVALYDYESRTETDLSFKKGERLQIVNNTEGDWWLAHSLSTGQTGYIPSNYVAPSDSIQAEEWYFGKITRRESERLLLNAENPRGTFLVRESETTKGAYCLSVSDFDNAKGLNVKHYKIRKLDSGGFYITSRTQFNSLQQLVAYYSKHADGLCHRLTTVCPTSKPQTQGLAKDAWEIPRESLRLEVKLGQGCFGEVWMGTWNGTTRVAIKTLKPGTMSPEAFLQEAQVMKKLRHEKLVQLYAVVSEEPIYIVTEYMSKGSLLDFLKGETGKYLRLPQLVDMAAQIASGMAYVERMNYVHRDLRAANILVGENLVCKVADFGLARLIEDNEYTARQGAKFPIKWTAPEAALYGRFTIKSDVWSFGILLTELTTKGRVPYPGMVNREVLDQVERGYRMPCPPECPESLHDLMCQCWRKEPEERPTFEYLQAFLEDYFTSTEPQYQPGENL

Compound | IC50 [1] [nM] | EC50 [2] [nM] | EC99 [2] [µM] | Ki [3] [nM] | Ki [4] [nM] | Ki [5] [nM] | Ki [6] [nM] | Ki [7] [nM] | Ki [8] [nM] | Ki [9] [nM] | Ki [10] [nM] | Ki [11] [nM] | Ki [12] [nM] | Ki [13] [nM] | Ki [14] [nM] | Ki [15] [nM] | Ki [16] [nM] | Ki [17] [nM] | Ki [18] [nM] | Ki [19] [nM]
Cc1noc([C@H]2C3CCC(CC3)[C@@H]2Nc2nc(-c3c[nH]c4ncc(F)cc34)ncc2F)n1 (mixture of isomers) | 210 | 120 | 1.2 | > 4000 | 980 | 970 | > 4000 | > 4000 | > 4000 | 2400 | 1100 | > 4000 | > 4000 | > 4000 | > 4000 | > 4000 | > 4000 | 2500 | 1400 | 2300
O=P(O)(O)CC[C@H]1C2CCC(CC2)[C@@H]1Nc1nc(-c2c[nH]c3ncc(F)cc23)ncc1F (mixture of isomers) | 200 | 330 | 2.1 | 620 | 120 | > 4000 | > 4000 | 250 | > 4000 | > 4000 | > 4000 | > 4000 | > 4000 | > 4000 | 320 | > 4000 | 850 | 3100 | 400 | > 4000
Oc1cc([C@H]2C3CCC(CC3)[C@@H]2Nc2nc(-c3c[nH]c4ncc(F)cc34)ncc2F)on1 (mixture of isomers) | 1 | 2 | 0.033 | > 4000 | 1600 | > 4000 | > 4000 | > 4000 | > 4000 | > 4000 | > 4000 | > 4000 | > 4000 | > 4000 | > 4000 | > 4000 | 1300 | > 4000 | 690 | > 4000
Oc1cc([C@H]2C3CCC(CC3)[C@@H]2Nc2nc(-c3c[nH]c4ncc(F)cc34)ncc2F)[nH]n1 (mixture of isomers) | 160 | 140 | 0.76 | > 4000 | 1200 | 4000 | > 4000 | > 4000 | > 4000 | > 4000 | > 4000 | > 4000 | > 4000 | > 4000 | 1700 | > 4000 | > 4000 | > 4000 | > 4000 | > 4000
OCC(O)[C@H]1C2CCC(CC2)[C@@H]1Nc1nc(-c2c[nH]c3ncc(F)cc23)ncc1F (mixture of isomers) | 68 | 41 | 0.18 | 390 | 78 | 160 | > 4000 | 1500 | 2400 | 3500 | 230 | 2700 | 3400 | > 4000 | 510 | > 4000 | 2600 | 1600 | 710 | 2500
CNC(=O)[C@H]1C2CCC(CC2)[C@@H]1Nc1nc(-c2c[nH]c3ncc(F)cc23)ncc1F (mixture of isomers) | 14 | 35 | 0.31 | 1100 | 230 | 1400 | > 4000 | > 4000 | > 4000 | 2500 | > 4000 | > 4000 | > 4000 | > 4000 | > 4000 | > 4000 | > 4000 | > 4000 | > 4000 | > 4000
O=c1nc([C@H]2C3CCC(CC3)[C@@H]2Nc2nc(-c3c[nH]c4ncc(F)cc34)ncc2F)[nH]o1 (mixture of isomers) | – | 29 | 0.14 | > 4000 | > 4000 | > 4000 | > 4000 | > 4000 | > 4000 | > 4000 | > 4000 | > 4000 | > 4000 | > 4000 | > 4000 | > 4000 | > 4000 | > 4000 | > 4000 | > 4000
O=C(O)[C@H]1C2CCC(CC2)[C@@H]1Nc1nc(-c2c[nH]c3ncc(F)cc23)ncc1F [PIMODIVIR] | 2 | 2 | 0.011 | > 4000 | 1600 | > 4000 | – | – | – | – | – | – | – | – | – | – | – | – | – | –
